Assay results published in paper PMC5518309 (ChemMedChem, 2014).
Numbered stars: 1 amine (or outer) side, 2 acyl side, 3 side chain; on linkers, the order of the positions; unused ones are H or OH. Side chains are listed from the residue outwards. Ends that are not written are not given here. Peptide text beside a SMILES is read from it. * marks the point of attachment. Arachidoyl = CCCCCCCCCCCCCCCCCCCC(=O)*; γGlu = O=C(O)[C@H](CCC(=O)[*:2])N[*:1]; Palmitoyl = CCCCCCCCCCCCCCCC(=O)*; Lauroyl = CCCCCCCCCCCC(=O)*; Octanoyl = CCCCCCCC(=O)*

Columns and labels:
Type in all cases: cell-based
[1] = target: T1, hY2R (Homo sapiens, UniProt P49146); experiment: Inositol phosphate accumulation assay, hY2R; conditions: for Emax: read-out: hY2R Emax
T1 sequence (P49146 1-381): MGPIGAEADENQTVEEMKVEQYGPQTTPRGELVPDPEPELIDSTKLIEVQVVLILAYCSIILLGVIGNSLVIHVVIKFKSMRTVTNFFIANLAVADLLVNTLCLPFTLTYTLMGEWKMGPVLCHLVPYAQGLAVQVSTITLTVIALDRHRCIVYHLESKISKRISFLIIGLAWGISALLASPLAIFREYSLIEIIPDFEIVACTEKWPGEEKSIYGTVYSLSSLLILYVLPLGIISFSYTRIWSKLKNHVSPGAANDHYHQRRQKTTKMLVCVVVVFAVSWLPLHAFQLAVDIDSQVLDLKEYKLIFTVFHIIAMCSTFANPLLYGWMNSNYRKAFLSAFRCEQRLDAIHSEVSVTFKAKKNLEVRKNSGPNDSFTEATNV

[2] = target: hY4R (Homo sapiens, UniProt P50391); experiment: Inositol phosphate accumulation assay, hY4R; conditions: for Emax: read-out: hY4R Emax
[3] = target: T2, hY5R (Homo sapiens, UniProt Q15761); experiment: Inositol phosphate accumulation assay, hY5R; conditions: for Emax: read-out: hY5R Emax
T2 sequence (Q15761 1-445): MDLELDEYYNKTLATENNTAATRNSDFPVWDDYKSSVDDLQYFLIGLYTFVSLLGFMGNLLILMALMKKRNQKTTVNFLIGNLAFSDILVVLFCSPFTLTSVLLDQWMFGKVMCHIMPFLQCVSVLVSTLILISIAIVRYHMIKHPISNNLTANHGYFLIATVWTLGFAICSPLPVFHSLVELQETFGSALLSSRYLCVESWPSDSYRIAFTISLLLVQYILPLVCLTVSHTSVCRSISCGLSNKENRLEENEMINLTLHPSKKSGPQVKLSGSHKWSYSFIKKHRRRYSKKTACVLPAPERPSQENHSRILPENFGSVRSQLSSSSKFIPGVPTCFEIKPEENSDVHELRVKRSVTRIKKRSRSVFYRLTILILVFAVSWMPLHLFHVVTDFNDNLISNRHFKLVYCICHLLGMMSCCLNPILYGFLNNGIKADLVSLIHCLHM

[4] = target: T3, hY1R (Homo sapiens, UniProt P25929); experiment: Inositol phosphate accumulation assay, hY1R; conditions: for Emax: read-out: hY1R Emax
T3 sequence (P25929 1-384): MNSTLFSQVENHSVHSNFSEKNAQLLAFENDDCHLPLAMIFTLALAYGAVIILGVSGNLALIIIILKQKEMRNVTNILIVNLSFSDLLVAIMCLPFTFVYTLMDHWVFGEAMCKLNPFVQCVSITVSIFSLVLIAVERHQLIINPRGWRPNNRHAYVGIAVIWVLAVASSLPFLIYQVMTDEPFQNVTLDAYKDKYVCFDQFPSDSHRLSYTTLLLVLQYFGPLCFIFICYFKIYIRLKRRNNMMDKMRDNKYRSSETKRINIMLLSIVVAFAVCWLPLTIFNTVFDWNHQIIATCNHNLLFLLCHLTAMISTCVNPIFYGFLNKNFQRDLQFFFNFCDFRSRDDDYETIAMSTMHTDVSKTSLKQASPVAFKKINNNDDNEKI

hY4R, sequence (P50391 whole entry): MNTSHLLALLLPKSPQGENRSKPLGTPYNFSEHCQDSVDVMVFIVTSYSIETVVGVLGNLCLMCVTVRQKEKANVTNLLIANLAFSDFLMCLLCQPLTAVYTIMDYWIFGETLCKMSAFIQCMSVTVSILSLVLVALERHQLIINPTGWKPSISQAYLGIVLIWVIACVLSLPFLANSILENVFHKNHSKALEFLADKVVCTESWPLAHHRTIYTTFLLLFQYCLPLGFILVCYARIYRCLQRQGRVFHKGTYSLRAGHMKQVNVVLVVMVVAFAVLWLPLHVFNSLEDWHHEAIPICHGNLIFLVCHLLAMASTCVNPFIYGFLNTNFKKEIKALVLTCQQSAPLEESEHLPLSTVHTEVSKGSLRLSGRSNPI

EC50 [1] [nM]	Emax [1] [%]	EC50 [2] [nM]	Emax [2] [%]	EC50 [3] [nM]	Emax [3] [%]	EC50 [4] [nM]	Emax [4] [%]	Compound
> 1000	88 ± 7	3.1	91 ± 4	26	84 ± 4	> 1000	84 ± 4	CCCCCCCC(=O)N[C@@H](CCC(=O)NCCCC[C@H](NC(=O)[C@H](C)NC(=O)[C@H](Cc1ccc(O)cc1)NC(=O)[C@H](CCC(N)=O)NC(=O)[C@H](C)NC(=O)[C@H](CCSC)NC(=O)[C@H](CCC(N)=O)NC(=O)[C@H](CCC(=O)O)NC(=O)[C@@H]1CCCN1C(=O)[C@@H](NC(=O)[C@H](C)NC(=O)[C@H](CC(N)=O)NC(=O)[C@H](CC(=O)O)NC(=O)CNC(=O)[C@@H]1CCCN1C(=O)[C@H](Cc1ccc(O)cc1)NC(=O)[C@@H](NC(=O)[C@@H]1CCCN1C(=O)[C@H](CCC(=O)O)NC(=O)[C@H](CC(C)C)NC(=O)[C@@H]1CCCN1)C(C)C)[C@@H](C)O)C(=O)N[C@@H](CC(=O)O)C(=O)N[C@@H](CC(C)C)C(=O)N[C@@H](CCCNC(=N)N)C(=O)N[C@@H](CCCNC(=N)N)C(=O)N[C@@H](Cc1ccc(O)cc1)C(=O)N[C@H](C(=O)N[C@@H](CC(N)=O)C(=O)N[C@@H](CCSC)C(=O)N[C@@H](CC(C)C)C(=O)N[C@H](C(=O)N[C@@H](CCCNC(=N)N)C(=O)N1CCC[C@H]1C(=O)N[C@@H](CCCNC(=N)N)C(=O)N[C@@H](Cc1ccc(O)cc1)C(N)=O)[C@@H](C)O)[C@@H](C)CC)C(=O)O [compound 10, [K^22(E-Capr)]hPP2–36] (H-PLEPVYPGDNATPEQMAQYAK([γGlu-Octanoyl])DLRRYINMLTRPRY-NH2)
67.1	107 ± 4	1.9	91 ± 3	6.1	89 ± 5	51.4	101 ± 7	PLEPVYPGDNATPEQMAQYAKDLRRYINMLTRPRY-NH2 [compound 8, [K^22]hPP2–36]
4.9	88 ± 5	2.5	84 ± 7	0.6	69 ± 10	25.1	98 ± 4	CCCCCCCCCCCCCCCCCCCC(=O)N[C@@H](CCC(=O)NCCCC[C@H](NC(=O)[C@H](CC(N)=O)NC(=O)[C@@H](NC(=O)[C@H](Cc1ccc(O)cc1)NC(=O)[C@H](CCCNC(=N)N)NC(=O)[C@H](CCCNC(=N)N)NC(=O)[C@H](CC(C)C)NC(=O)[C@H](CC(=O)O)NC(=O)[C@H](C)NC(=O)[C@H](C)NC(=O)[C@H](Cc1ccc(O)cc1)NC(=O)[C@H](CCC(N)=O)NC(=O)[C@H](C)NC(=O)[C@H](CCSC)NC(=O)[C@H](CCC(N)=O)NC(=O)[C@H](CCC(=O)O)NC(=O)[C@@H]1CCCN1C(=O)[C@@H](NC(=O)[C@H](C)NC(=O)[C@H](CC(N)=O)NC(=O)[C@H](CC(=O)O)NC(=O)CNC(=O)[C@@H]1CCCN1C(=O)[C@H](Cc1ccc(O)cc1)NC(=O)[C@@H](NC(=O)[C@@H]1CCCN1C(=O)[C@H](CCC(=O)O)NC(=O)[C@H](CC(C)C)NC(=O)[C@@H]1CCCN1)C(C)C)[C@@H](C)O)[C@@H](C)CC)C(=O)N[C@@H](CC(C)C)C(=O)N[C@H](C(=O)N[C@@H](CCCNC(=N)N)C(=O)N1CCC[C@H]1C(=O)N[C@@H](CCCNC(=N)N)C(=O)N[C@@H](Cc1ccc(O)cc1)C(N)=O)[C@@H](C)O)C(=O)O [compound 19, [K^30(E-Ara)]hPP2–36] (H-PLEPVYPGDNATPEQMAQYAADLRRYINK([γGlu-Arachidoyl])LTRPRY-NH2)
1.7	103 ± 12	1.5	78 ± 4	1.9	81 ± 6	16.5	93 ± 6	CCCCCCCCCCCCCCCC(=O)N[C@@H](CCC(=O)NCCCC[C@H](NC(=O)[C@H](C)NC(=O)[C@H](Cc1ccc(O)cc1)NC(=O)[C@H](CCC(N)=O)NC(=O)[C@H](C)NC(=O)[C@H](CCSC)NC(=O)[C@H](CCC(N)=O)NC(=O)[C@H](CCC(=O)O)NC(=O)[C@@H]1CCCN1C(=O)[C@@H](NC(=O)[C@H](C)NC(=O)[C@H](CC(N)=O)NC(=O)[C@H](CC(=O)O)NC(=O)CNC(=O)[C@@H]1CCCN1C(=O)[C@H](Cc1ccc(O)cc1)NC(=O)[C@@H](NC(=O)[C@@H]1CCCN1C(=O)[C@H](CCC(=O)O)NC(=O)[C@H](CC(C)C)NC(=O)[C@@H]1CCCN1)C(C)C)[C@@H](C)O)C(=O)N[C@@H](CC(=O)O)C(=O)N[C@@H](CC(C)C)C(=O)N[C@@H](CCCNC(=N)N)C(=O)N[C@@H](CCCNC(=N)N)C(=O)N[C@@H](Cc1ccc(O)cc1)C(=O)N[C@H](C(=O)N[C@@H](CC(N)=O)C(=O)N[C@@H](CCSC)C(=O)N[C@@H](CC(C)C)C(=O)N[C@H](C(=O)N[C@@H](CCCNC(=N)N)C(=O)N1CCC[C@H]1C(=O)N[C@@H](CCCNC(=N)N)C(=O)N[C@@H](Cc1ccc(O)cc1)C(N)=O)[C@@H](C)O)[C@@H](C)CC)C(=O)O [compound 12, [K^22(E-Pam)]hPP2–36] (H-PLEPVYPGDNATPEQMAQYAK([γGlu-Palmitoyl])DLRRYINMLTRPRY-NH2)
49.6	101 ± 7	1.5	86 ± 5	14.9	87 ± 5	204	87 ± 5	CCCCCCCCCCCC(=O)N[C@@H](CCC(=O)NCCCC[C@H](NC(=O)[C@H](C)NC(=O)[C@H](Cc1ccc(O)cc1)NC(=O)[C@H](CCC(N)=O)NC(=O)[C@H](C)NC(=O)[C@H](CCSC)NC(=O)[C@H](CCC(N)=O)NC(=O)[C@H](CCC(=O)O)NC(=O)[C@@H]1CCCN1C(=O)[C@@H](NC(=O)[C@H](C)NC(=O)[C@H](CC(N)=O)NC(=O)[C@H](CC(=O)O)NC(=O)CNC(=O)[C@@H]1CCCN1C(=O)[C@H](Cc1ccc(O)cc1)NC(=O)[C@@H](NC(=O)[C@@H]1CCCN1C(=O)[C@H](CCC(=O)O)NC(=O)[C@H](CC(C)C)NC(=O)[C@@H]1CCCN1)C(C)C)[C@@H](C)O)C(=O)N[C@@H](CC(=O)O)C(=O)N[C@@H](CC(C)C)C(=O)N[C@@H](CCCNC(=N)N)C(=O)N[C@@H](CCCNC(=N)N)C(=O)N[C@@H](Cc1ccc(O)cc1)C(=O)N[C@H](C(=O)N[C@@H](CC(N)=O)C(=O)N[C@@H](CCSC)C(=O)N[C@@H](CC(C)C)C(=O)N[C@H](C(=O)N[C@@H](CCCNC(=N)N)C(=O)N1CCC[C@H]1C(=O)N[C@@H](CCCNC(=N)N)C(=O)N[C@@H](Cc1ccc(O)cc1)C(N)=O)[C@@H](C)O)[C@@H](C)CC)C(=O)O [compound 11, [K^22(E-Laur)]hPP2–36] (H-PLEPVYPGDNATPEQMAQYAK([γGlu-Lauroyl])DLRRYINMLTRPRY-NH2)
–	96 ± 5	–	–	–	90 ± 5	–	95 ± 3	CC[C@H](C)[C@H](NC(=O)[C@H](Cc1ccc(O)cc1)NC(=O)[C@H](CCCNC(=N)N)NC(=O)[C@H](CCCNC(=N)N)NC(=O)[C@H](CC(C)C)NC(=O)[C@H](CC(=O)O)NC(=O)[C@H](C)NC(=O)[C@H](C)NC(=O)[C@H](Cc1ccc(O)cc1)NC(=O)[C@H](CCC(N)=O)NC(=O)[C@H](C)NC(=O)[C@H](CCSC)NC(=O)[C@H](CCC(N)=O)NC(=O)[C@H](CCC(=O)O)NC(=O)[C@@H]1CCCN1C(=O)[C@@H](NC(=O)[C@H](C)NC(=O)[C@H](CC(N)=O)NC(=O)[C@H](CC(=O)O)NC(=O)CNC(=O)[C@@H]1CCCN1C(=O)[C@H](Cc1ccc(O)cc1)NC(=O)[C@@H](NC(=O)[C@@H]1CCCN1C(=O)[C@H](CCC(=O)O)NC(=O)[C@H](CC(C)C)NC(=O)[C@@H]1CCCN1C(=O)[C@H](C)N)C(C)C)[C@@H](C)O)C(=O)N[C@@H](CC(N)=O)C(=O)N[C@@H](CCSC)C(=O)N[C@@H](CC(C)C)C(=O)N[C@H](C(=O)N[C@@H](CCCNC(=N)N)C(=O)N1CCC[C@H]1C(=O)N[C@@H](CCCNC(=N)N)C(=O)N[C@@H](Cc1ccc(O)cc1)C(N)=O)[C@@H](C)O [1a, hPP, reference compound]
–	–	1.4	95 ± 4	23.9	79 ± 4	> 1000	93 ± 5	PLEPVYPGDNATPEQMAQYAADLRRYINKLTRPRY-NH2 [14a, [K^30]hPP2–36]
